Measured values published in PMC4403932 (Journal of Medicinal Chemistry, 2015).
Entries after “also recorded” stand apart in the source; their conditions may differ. Read-outs that look alike come from different tables or passages of the source.

Legend:
PCAF = biological target: T1, PCAF (Homo sapiens, UniProt Q92831); test: Protein stability (thermal) shift assay, PCAF; format: binding; conditions: compound 10 μM, protein 2 μM; average of triplicate
T1 construct: representative BRDs from other structural subfamilies (family I, PCAF); made in house
T1 sequence (Q92831 723-827 limits assumed): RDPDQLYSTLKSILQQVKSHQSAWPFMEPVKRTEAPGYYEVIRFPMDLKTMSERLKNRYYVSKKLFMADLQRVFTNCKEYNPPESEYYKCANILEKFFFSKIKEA

BRD2(1) = biological target: T2, BRD2(1) (Homo sapiens, UniProt P25440); test: Isothermal titration calorimetry, BRD2(1); format: binding; conditions: for Kd / TΔS / ΔG / N (stoichiometry) / ΔHobs: ITC, 15 °C; for Kd: 50 mM HEPES pH 7.5, 150 mM NaCl, triplicate; for Kd / N (stoichiometry) / ΔHobs: reverse titration; for LE (ligand efficiency): LE = ΔG/N, N number of non-hydrogen atoms
T2 construct: Fragments were tested in a thermal shift assay against bromodomains of the BET subfamily; made in house
Procedure: Experiments were carried out on an ITC200 titration microcalorimeter from MicroCal, LLC (GE Healthcare) equipped with a Washing module, with a cell volume of 0.2003 mL, and a 40 μL microsyringe. Experiments were carried out at 15 °C while stirring at 1000 rpm, in ITC buffer (50 mM HEPES, pH 7.5 (at 25 °C), 150 mM NaCl). The microsyringe was loaded with a solution of the protein sample (300−740 μM protein for BRD9 and BRD4(1), respectively, in ITC buffer) and was carefully inserted into the calorimetric cell which was filled with an amount of the ligand (0.2 mL, 20–25 μM in ITC buffer). The system was first allowed to equilibrate until the cell temperature reached 15 °C, and an additional delay of 60 s was applied. All titrations were conducted using an initial control injection of 0.3 μL followed by 38 identical injections of 1 μL with a duration of 2 s (per injection) and a spacing of 120 s between injections. The titration experiments were designed in such a fashion as to ensure complete saturation of the proteins before the final injection. The heat of dilution for the proteins was independent of their concentration and corresponded to the heat observed from the last injection, following saturation of ligand binding, thus facilitating the estimation of the baseline of each titration from the last injection. The collected data were corrected for protein heats of dilution (measured on separate experiments by titrating the proteins into ITC buffer) and deconvoluted using the MicroCal Origin software supplied with the instrument to yield enthalpies of binding (ΔH) and binding constants (KB) in the same fashion as that previously described in detail by Wiseman and co-workers.[66] Thermodynamic parameters were calculated using the basic equation of thermodynamics (ΔG = ΔH – TΔS = −RT ln KB, where ΔG, ΔH, and ΔS are the changes in free energy, enthalpy, and entropy of binding, respectively). In all cases a single binding site model was employed, supplied with the MicroCal Origin software package.

BRD4(1) = biological target: T3, BRD4(1) (Homo sapiens, UniProt O60885); test: Protein stability (thermal) shift assay, BRD4(1); format: binding
T3 construct: made in house

PB1(5) = biological target: T4, PB1(5) (Homo sapiens, UniProt Q86U86); test: Protein stability (thermal) shift assay, PB1(5); format: binding; conditions: compound 10 μM, protein 2 μM; average of triplicate
T4 construct: made in house

BRD4(2) = biological target: T5, BRD4(2) (Homo sapiens, UniProt O60885); test: Protein stability (thermal) shift assay, BRD4(2); format: binding; conditions: compound 10 μM, protein 2 μM; average of triplicate
T5 construct: made in house

BAZ2B = biological target: T6, BAZ2B (Homo sapiens, UniProt Q9UIF8); test: Protein stability (thermal) shift assay, BAZ2B; format: binding; conditions: compound 10 μM, protein 2 μM; average of triplicate; read-out: ΔTm Shift, BAZ2BA
T6 construct: representative BRDs from other structural subfamilies (family I, PCAF); family III, CREBBP; family IV, BRD9; family V, BAZ2B; made in house
T6 sequence (Q9UIF8 2060-2164 limits assumed): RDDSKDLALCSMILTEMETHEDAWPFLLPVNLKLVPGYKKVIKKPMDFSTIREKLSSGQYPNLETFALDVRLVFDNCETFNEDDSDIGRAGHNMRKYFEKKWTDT

BRD2(2) = biological target: T7, BRD2(2) (Homo sapiens, UniProt P25440); test: Protein stability (thermal) shift assay, BRD2(2); format: binding; conditions: compound 10 μM, protein 2 μM; average of triplicate
T7 construct: made in house

BRDT(2) = biological target: T8, BRDT(2) (Homo sapiens, UniProt Q58F21); test: Protein stability (thermal) shift assay, BRDT(2); format: binding; conditions: compound 10 μM, protein 2 μM; average of triplicate; read-out: ΔTm Shift, BRDT(2)
T8 construct: made in house

BRD9 = biological target: T9, BRD9 (Homo sapiens, UniProt Q9H8M2); test: Isothermal titration calorimetry, BRD9; format: binding; conditions: for Kd: 50 mM HEPES pH 7.5, 150 mM NaCl, triplicate, read-out: KD; for Kd / N (stoichiometry) / ΔHobs: reverse titration; for LE (ligand efficiency): LE = ΔG/N, N number of non-hydrogen atoms
T9 construct: made in house
T9 sequence (Q9H8M2 136-240 limits assumed): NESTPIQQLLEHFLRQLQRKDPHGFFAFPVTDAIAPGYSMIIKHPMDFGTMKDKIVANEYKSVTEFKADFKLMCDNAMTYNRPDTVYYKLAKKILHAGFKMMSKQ

HEK293 cells = test: In vitro cytotoxicity (CellTiter-Glo); format: cell-based, human; conditions: cell viability, 0.005-33 μM
Procedure: Following NanoBRET substrate addition and NanoBRET measurements, to the same wells an equal volume of CellTiter-Glo reagent (Promega) was added and the plates were incubated for 30 min at room temperature. Total luminescence was measured, and relative compound toxicity was determined by comparing the RLUs (relative light units) of a sample containing DMSO vehicle (in the absence of compound 11) to the RLUs of the samples containing 0.005–33 μM compound 11.

BRDT(1) = biological target: T10, BRDT(1) (Homo sapiens, UniProt Q58F21); test: Protein stability (thermal) shift assay, BRDT(1); format: binding; conditions: compound 10 μM, protein 2 μM; average of triplicate
T10 construct: made in house

T2 sequence (P25440 74-180 limits assumed): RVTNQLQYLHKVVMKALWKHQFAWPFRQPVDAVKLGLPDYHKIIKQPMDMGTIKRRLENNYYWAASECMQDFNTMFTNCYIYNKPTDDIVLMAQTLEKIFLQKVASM
T4 sequence (Q86U86 653-763 limits assumed): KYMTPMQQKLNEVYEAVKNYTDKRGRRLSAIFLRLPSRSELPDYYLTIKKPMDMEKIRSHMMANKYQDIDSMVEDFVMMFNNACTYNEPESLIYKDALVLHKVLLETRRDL
T7 sequence (P25440 344-453 limits assumed): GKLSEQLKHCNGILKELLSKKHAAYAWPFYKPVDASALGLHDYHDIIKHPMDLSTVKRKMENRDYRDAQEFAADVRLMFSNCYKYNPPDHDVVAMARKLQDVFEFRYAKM

| SMILES | ΔTm at 10 µM (PCAF) | Kd (BRD2(1)) | TΔS (BRD2(1)) | ΔG (BRD2(1)) | N (stoichiometry) (BRD2(1)) | ΔHobs (BRD2(1)) | LE (ligand efficiency) (BRD2(1)) | ΔTm at 10 µM (PB1(5)) | ΔTm at 10 µM (BRD4(2)) | ΔTm at 10 µM (BAZ2B) | ΔTm at 10 µM (BRD2(2)) | ΔTm at 10 µM (BRDT(2)) | Kd (BRD9; ITC, 15 °C) | ΔG (BRD9; ITC, 15 °C) | N (stoichiometry) (BRD9; ITC, 15 °C) | ΔHobs (BRD9; ITC, 15 °C) | LE (ligand efficiency) (BRD9) | cytotoxicity toward HEK293 cells (in words) (HEK293 cells) | ΔTm at 10 µM (BRDT(1)) | further results |
| --- | --- | --- | --- | --- | --- | --- | --- | --- | --- | --- | --- | --- | --- | --- | --- | --- | --- | --- | --- | --- |
| COc1ccc(Br)cc1-c1nc(N)nc2[nH]cnc12 [Compound 7d, 2-Amino-6-(5-bromo-2-methoxyphenyl)-9H-purine] | -0.45 °C | 4440 ± 162 nM | 0.44 kcal/mol | –7.06 kcal/mol | 0.99 ± 0.011 | –6.62 ± 0.09 kcal/mol | 0.37 | 1.6 °C | 0.6 °C | 0.237 °C | 0.9 °C | 1.8 °C | 397 ± 19 nM | –8.45 kcal/mol | 0.97 ± 0.005 | –9.63 ± 0.06 kcal/mol | 0.44 | not cytotoxic | 0.0286 °C | ΔTm at 10 µM (BRD4(1); thermal shift, 10 μM compound, 2 μM protein, read-out: ΔTm): 3.2 °C |
| Nc1nc(-c2cc(Br)cc3c2OCC3)c2nc[nH]c2n1 [Compound 11, 2-Amino-6-(5-bromo-2,3-dihydrobenzo[b]furan-7-yl)-9H-purine] | 0.9 °C | 1420 ± 60 nM | 2.06 kcal/mol | –7.71 kcal/mol | 1.02 ± 0.006 | –5.65 ± 0.04 kcal/mol | 0.39 | 0.8 °C | 2.8 °C | 0.37 °C | 4.3 °C | 4 °C | 278 ± 15 nM | –8.65 kcal/mol | 1.03 ± 0.003 | –10.28 ± 0.04 kcal/mol | 0.43 | did not observe any cytotoxicty; also recorded: not cytotoxic; also recorded: not toxic | 1.7 °C | ΔTm at 10 µM (BRD4(1); compound 10 μM, protein 2 μM, average of triplicate, read-out: ΔTm Shift, BRD4(1)): 5.3 °C; TΔS (BRD9; ITC, 15 °C): –1.63 kcal/mol |
